# US8796268B2, “Heteroaryls and uses thereof” (Millennium Pharmaceuticals, Inc., priority 2010, dated 2014)
# Read-outs that look alike come from different tables or passages of the source.
# What was measured:
# Format in all cases: biochemical
# Human PI3K delta = molecular target: T1, Human PI3K delta (Homo sapiens, UniProt O00329); assay: Human PI3K delta enzyme assay (HTRF)
# T1 construct: His (N); host or cells: SF9 insect cells (baculovirus)
# How it was run: (§1)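 Compounds were mixed with 25 uM ATP, then with 3.5 uM di-C8 PI(4,5)P2 and His-tagged PI3K isoform (β 5.25 nM, δ 0.75 nM, γ 5 nM) at pH 7.00. After 30 min at room temperature, EDTA stopped the reaction and PIP3 was measured by HTRF over 1 h.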
# Human VPS34 = molecular target: T2, Human VPS34 (Homo sapiens, UniProt Q8NEB9); assay: Human VPS34 enzyme assay (Adapta Universal Kinase Assay); details: at a 1.0 μM concentration; read-out: VPS34 Percent Inhibition
# T2 construct: GST (with thrombin site, pDEST20-Thrombin) (N); host or cells: SF9 insect cells (baculovirus)
# T2 sequence (Q8NEB9 whole entry): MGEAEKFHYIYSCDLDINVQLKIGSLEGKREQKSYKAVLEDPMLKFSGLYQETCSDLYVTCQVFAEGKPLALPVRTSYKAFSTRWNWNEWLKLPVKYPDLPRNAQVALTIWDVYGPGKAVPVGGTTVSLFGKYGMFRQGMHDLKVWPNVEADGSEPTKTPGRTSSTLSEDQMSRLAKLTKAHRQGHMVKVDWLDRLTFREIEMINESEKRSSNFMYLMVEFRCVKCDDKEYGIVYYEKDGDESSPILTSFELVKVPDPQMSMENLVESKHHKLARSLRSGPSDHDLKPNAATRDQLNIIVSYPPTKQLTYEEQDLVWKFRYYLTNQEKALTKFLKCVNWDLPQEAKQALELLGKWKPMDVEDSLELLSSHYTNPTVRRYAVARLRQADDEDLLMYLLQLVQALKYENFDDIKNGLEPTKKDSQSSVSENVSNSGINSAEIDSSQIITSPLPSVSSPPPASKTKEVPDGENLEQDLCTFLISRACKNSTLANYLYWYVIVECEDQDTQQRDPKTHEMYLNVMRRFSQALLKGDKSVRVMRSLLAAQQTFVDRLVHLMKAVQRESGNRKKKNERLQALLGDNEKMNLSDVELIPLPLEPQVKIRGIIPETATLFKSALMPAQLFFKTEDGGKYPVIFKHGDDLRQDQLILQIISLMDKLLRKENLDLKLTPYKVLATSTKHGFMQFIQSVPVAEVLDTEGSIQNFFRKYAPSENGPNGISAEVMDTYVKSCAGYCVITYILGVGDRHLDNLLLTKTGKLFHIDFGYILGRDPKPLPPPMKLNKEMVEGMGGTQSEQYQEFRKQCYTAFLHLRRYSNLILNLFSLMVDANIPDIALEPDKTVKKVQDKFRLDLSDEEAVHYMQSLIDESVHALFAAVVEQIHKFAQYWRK
# Description: The catalytic subunits of PI3Ks are cloned into either pDEST8(p110 alpha) or pDEST10(p110beta, p110delta, and p110gamma) as N-terminal His tagged fusion proteins using the Gateway system (Invitrogen, catalog#11804-010 for pDEST8 and 11806-015 for pDEST10). The sequences are verified before recombinant protein expression using the Baculovirus Expression System with Gateway® Technology. The accession numbers for the subunits are as follows: • p110 alpha (GB:U79143) • p110beta (GB: S67334) • p110delta (GB: U86453) • p110gamma (GB: X83368) • The regulatory subunits of PI3Ks are cloned into pDEST8 as un-tagged protein using the Gateway system (Catalog#11804-010). The sequences are verified before recombinant protein expression using the Baculovirus Expression System with Gateway® Technology. The accession numbers for the subunits are as following: • p85 alpha (GB: BC030815) • p101(GB: AB028925) • VPS34 (accession number GB:BC033004) is cloned into pDEST20—Thombin as N-terminal GST tagged fusion proteins using the Gateway system (Invitrogen, catalog#11804-013). The sequences are verified before recombinant protein expression using the Baculovirus Expression System with Gateway® Technology.
# For expression VPS34 was infected at 1MOI in SF9 cells and harvested 72 hours post infection.
# For purification, VPS34 is purified by Glutathione Sepharose 4 Fast Flow (GE Healthcare #17-5132-03) followed by HiTrap Q (GE Healthcare #17-1153-01).
# 3) VPS34 is assayed using Adapta™ Universal Kinase Assay Kit (Invitrogen).
# 4) Human VPS34 enzyme assay method
# 100 nL compounds in DMSO are added to wells of a 384 well microtitre plate (Greiner 780076). At room temperature: 5 ul VPS34 reaction buffer (Invitrogen Assay Buffer Q (diluted 1 in 5 with nanopure water) plus 2 mM DTT and 2 mM MnCl2) containing ATP (20 uM, Promega) and 200 uM PI—PS substrate (Invitrogen PV5122) is added followed immediately by 5 ul VPS34 reaction buffer (as above) containing VPS34 (5 nM, Millennium Protein Sciences Group) and the mixture is incubated with shaking at room temperature for 1 hour. Then 5 ul VPS34 stop-detect mix (as per Invitrogen Adapta Assay kit (PV5009) instructions (contains kinase quench buffer, TR-FRET buffer, Adapta Eu anti-ADP antibody and Alexa Fluor 647 ADP tracer)) is added to quench the reaction. The plates are then incubated for 30 minutes at room temperature with shaking and then read on a BMG PheraStar Plus reader.
# For the assay methods described above, test compound percent inhibition, at various concentrations, is calculated relative to control (DMSO and EDTA) treated samples. Compound concentration versus percent inhibition curves are fitted to generate IC50 values. One skilled in the art will appreciate that the values generated either as percentage inhibition at a single concentration or IC50 values are subject to experimental variation.
# Human PI3K gamma = molecular target: T3, Human PI3K gamma (Homo sapiens, UniProt P48736); assay: Human PI3K gamma enzyme assay (HTRF)
# T3 construct: His (N); host or cells: SF9 insect cells (baculovirus)
# How it was run: as §1
# Human PI3K alpha = molecular target: T4, Human PI3K alpha (Homo sapiens, UniProt P42336); assay: Human PI3K alpha enzyme assay (HTRF)
# T4 construct: His (N); host or cells: SF9 insect cells (baculovirus)
# T4 sequence (P42336 whole entry): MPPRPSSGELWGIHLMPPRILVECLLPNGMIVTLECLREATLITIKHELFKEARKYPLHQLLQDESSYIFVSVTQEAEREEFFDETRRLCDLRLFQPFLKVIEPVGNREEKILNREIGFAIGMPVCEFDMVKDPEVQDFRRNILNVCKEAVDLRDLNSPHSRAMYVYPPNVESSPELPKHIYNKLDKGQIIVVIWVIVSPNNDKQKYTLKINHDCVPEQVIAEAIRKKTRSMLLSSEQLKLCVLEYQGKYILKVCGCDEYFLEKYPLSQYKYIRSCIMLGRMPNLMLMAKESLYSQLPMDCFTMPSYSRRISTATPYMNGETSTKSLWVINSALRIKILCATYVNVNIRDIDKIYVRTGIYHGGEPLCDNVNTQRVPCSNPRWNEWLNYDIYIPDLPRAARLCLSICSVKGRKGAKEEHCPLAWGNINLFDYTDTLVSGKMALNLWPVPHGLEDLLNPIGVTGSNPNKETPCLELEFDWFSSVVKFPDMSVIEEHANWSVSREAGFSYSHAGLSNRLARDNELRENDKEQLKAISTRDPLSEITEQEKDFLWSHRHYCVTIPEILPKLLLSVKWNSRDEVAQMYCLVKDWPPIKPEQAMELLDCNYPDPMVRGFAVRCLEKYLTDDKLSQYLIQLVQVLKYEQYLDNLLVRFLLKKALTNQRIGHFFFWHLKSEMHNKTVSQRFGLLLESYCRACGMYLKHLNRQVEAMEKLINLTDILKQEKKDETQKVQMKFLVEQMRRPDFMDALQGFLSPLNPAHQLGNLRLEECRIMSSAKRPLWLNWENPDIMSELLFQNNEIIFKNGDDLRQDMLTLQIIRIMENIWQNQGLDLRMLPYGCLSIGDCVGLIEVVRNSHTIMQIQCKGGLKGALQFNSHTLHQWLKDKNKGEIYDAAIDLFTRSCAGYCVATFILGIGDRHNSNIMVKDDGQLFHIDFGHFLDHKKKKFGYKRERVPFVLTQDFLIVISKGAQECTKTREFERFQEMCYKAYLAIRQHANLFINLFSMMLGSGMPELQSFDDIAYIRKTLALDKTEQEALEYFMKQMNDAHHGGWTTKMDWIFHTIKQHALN
# T4 sequence (P27986 whole entry partner): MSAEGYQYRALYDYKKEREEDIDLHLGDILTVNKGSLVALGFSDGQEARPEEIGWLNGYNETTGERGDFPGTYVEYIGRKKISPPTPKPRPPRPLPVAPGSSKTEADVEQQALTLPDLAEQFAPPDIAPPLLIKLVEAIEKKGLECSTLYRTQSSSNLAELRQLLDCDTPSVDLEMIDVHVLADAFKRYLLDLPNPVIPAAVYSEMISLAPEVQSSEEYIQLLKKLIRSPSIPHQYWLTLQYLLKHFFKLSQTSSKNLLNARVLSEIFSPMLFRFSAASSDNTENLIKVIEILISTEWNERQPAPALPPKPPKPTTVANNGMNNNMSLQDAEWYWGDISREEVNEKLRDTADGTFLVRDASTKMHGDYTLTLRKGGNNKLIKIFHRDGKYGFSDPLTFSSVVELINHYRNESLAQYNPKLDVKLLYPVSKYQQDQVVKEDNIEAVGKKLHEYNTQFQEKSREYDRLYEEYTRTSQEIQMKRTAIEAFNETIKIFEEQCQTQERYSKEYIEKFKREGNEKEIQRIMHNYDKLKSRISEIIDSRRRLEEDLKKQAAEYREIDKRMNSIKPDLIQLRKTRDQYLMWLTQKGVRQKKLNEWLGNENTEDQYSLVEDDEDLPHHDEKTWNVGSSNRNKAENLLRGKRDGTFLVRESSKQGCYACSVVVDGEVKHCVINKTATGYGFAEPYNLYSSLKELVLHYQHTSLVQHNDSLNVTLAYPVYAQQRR
# Human PI3K beta = molecular target: T5, Human PI3K beta (Homo sapiens, UniProt P42338); assay: Human PI3K beta enzyme assay (HTRF)
# T5 construct: His (N); host or cells: SF9 insect cells (baculovirus)
# T5 sequence (P42338 whole entry): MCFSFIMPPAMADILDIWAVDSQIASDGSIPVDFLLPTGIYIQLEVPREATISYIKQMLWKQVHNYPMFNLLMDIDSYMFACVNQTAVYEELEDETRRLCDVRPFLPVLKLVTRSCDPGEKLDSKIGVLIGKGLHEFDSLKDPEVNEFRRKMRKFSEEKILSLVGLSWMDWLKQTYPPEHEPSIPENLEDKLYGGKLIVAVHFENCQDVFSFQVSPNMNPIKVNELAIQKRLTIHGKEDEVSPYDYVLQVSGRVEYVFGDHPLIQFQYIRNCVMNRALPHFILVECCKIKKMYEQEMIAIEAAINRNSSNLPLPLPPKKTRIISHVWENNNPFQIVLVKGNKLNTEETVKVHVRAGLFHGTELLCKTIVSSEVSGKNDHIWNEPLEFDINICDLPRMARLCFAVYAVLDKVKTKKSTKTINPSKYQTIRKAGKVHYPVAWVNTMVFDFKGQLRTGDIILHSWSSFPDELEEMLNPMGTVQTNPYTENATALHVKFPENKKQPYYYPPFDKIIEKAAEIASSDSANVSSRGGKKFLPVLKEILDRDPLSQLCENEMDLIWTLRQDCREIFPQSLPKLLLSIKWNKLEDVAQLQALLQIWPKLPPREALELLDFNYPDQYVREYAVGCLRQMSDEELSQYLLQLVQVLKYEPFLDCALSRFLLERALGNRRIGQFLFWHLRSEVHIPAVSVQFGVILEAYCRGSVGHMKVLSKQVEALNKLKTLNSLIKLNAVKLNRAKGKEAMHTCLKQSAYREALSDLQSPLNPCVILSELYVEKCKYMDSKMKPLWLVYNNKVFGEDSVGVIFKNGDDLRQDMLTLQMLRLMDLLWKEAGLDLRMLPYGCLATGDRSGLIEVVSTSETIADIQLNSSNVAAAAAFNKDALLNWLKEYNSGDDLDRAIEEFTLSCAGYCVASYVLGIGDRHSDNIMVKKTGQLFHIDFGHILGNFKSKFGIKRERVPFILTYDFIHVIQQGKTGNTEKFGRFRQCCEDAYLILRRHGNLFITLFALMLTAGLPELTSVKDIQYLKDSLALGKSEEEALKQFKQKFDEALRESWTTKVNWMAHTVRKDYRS
# T5 sequence (P27986 whole entry partner): as the sequence (P27986 whole entry partner) above
# How it was run: as §1
# [1] = at a 1.0 μM concentration, read-out: PI3Kδ Percent Inhibition
# [2] = at a 1.0 μM concentration, read-out: PI3Kγ Percent Inhibition
# [3] = at a 1.1 μM concentration, read-out: PI3Kα Percent Inhibition
# [4] = at a 1.1 μM concentration, read-out: PI3β Percent Inhibition
# [5] = concentration not given, b1389 states 1.0 μM for PI3K δ and γ, read-out: p110 delta Percent Inhibition
# [6] = concentration not given, b1389 states 1.0 μM for PI3K δ and γ, read-out: p110 gamma Percent Inhibition
# [7] = concentration not given, b1387 states 1.1 μM for PI3K α and β, read-out: p110 alpha Percent Inhibition
# [8] = concentration not given, b1387 states 1.1 μM for PI3K α and β, read-out: p110 beta Percent Inhibition
# [9] = concentration not given, b1389 states 1.0 μM for PI3K δ and γ
# [10] = concentration not given, b1387 states 1.1 μM for PI3K α and β
# [11] = read-out: p110 delta Percent Inhibition
# [12] = read-out: p110 gamma Percent Inhibition
# [13] = read-out: p110 alpha Percent Inhibition
# [14] = read-out: p110 beta Percent Inhibition
# T1 sequence (O00329 whole entry): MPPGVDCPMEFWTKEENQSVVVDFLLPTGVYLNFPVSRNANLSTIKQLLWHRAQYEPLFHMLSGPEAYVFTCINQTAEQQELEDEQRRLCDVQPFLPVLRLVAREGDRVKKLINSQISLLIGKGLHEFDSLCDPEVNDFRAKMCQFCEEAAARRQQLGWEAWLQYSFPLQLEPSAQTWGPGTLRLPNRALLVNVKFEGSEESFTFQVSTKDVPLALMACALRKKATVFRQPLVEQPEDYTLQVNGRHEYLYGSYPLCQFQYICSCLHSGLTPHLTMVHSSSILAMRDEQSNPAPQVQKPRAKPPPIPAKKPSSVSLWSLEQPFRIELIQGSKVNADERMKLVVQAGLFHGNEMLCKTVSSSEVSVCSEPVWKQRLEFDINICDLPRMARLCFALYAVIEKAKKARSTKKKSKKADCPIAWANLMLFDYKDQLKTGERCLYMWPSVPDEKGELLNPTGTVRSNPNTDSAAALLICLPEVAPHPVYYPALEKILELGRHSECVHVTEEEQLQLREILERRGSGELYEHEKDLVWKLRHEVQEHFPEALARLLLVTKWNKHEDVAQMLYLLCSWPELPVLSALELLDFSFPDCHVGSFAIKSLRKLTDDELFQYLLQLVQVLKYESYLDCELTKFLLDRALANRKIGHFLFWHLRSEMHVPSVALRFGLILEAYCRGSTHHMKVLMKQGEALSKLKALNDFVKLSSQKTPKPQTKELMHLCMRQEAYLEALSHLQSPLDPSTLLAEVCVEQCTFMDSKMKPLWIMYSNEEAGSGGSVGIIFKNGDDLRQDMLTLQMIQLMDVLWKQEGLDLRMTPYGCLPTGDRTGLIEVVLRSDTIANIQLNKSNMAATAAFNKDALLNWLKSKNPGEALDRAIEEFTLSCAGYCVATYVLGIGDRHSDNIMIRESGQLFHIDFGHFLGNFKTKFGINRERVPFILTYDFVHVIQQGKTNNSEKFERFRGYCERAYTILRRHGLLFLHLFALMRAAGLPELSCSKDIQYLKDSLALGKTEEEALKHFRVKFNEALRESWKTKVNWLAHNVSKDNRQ
# T1 sequence (P27986 whole entry partner): as the sequence (P27986 whole entry partner) above
Compound,inhibition at 1 µM (Human PI3K delta; [5]),inhibition at 1 µM (Human PI3K gamma; [6]),inhibition at 1.1 µM (Human PI3K alpha; [7]),inhibition at 1.1 µM (Human PI3K beta; [8]),p110 delta Percent Inhibition (Human PI3K delta; [9]),also measured
N#Cc1ccc(Cc2nc(N3CCOCC3)sc2C(=O)O)cc1 [Compound 93],–,–,–,–,–,inhibition at 1 µM (Human PI3K delta; [1]): 46%; inhibition at 1 µM (Human VPS34): 19.2%; inhibition at 1 µM (Human PI3K gamma; [2]): 9.5%; inhibition at 1.1 µM (Human PI3K alpha; [3]): 9%; inhibition at 1.1 µM (Human PI3K beta; [4]): 80%
"N#Cc1c(N2CCOCC2)sc(C(=O)O)c1Cc1ccc(Cl)c(F)c1 [Compound 94, 3-(4-chloro-3-fluorobenzyl)-4-cyano-5-morpholin-4-ylthiophene-2-carboxylic acid]",–,–,–,–,–,inhibition at 1 µM (Human PI3K delta; [1]): 102%; inhibition at 1 µM (Human VPS34): 30.6%; inhibition at 1 µM (Human PI3K gamma; [2]): 52.6%; inhibition at 1.1 µM (Human PI3K alpha; [3]): 58%; inhibition at 1.1 µM (Human PI3K beta; [4]): 97%
"N#Cc1c(C2=CCOCC2)sc(C(=O)O)c1Cc1ccc(Cl)cc1 [Compound 95, 3-(4-chlorobenzyl)-4-cyano-5-(3,6-dihydro-2H-pyran-4-yl)thiophene-2-carboxylic acid]",–,–,–,–,–,inhibition at 1 µM (Human PI3K delta; [1]): 86.1%; inhibition at 1 µM (Human VPS34): 167%; inhibition at 1 µM (Human PI3K gamma; [2]): 23.9%; inhibition at 1.1 µM (Human PI3K alpha; [3]): 68%; inhibition at 1.1 µM (Human PI3K beta; [4]): 101%
"Clc1ccc(Cc2nc(N3CCOCC3)sc2Cc2nnn[nH]2)cc1Cl [Compound 350, 4-(5-((1H-tetrazol-5-yl)methyl)-4-(3,4-dichlorobenzyl)thiazol-2-yl)morpholine]",41%,3%,6%,58%,–,–
CN(C)C(c1ccc(Cl)cc1)c1c(C(=O)O)sc(N2CCOCC2)c1C#N (stereo not drawn) [Compound 351],79%,46%,15%,82%,–,–
"CS(=O)(=O)NC(=O)c1sc(N2CCOCC2)c(C#N)c1Cc1ccc(Cl)c(Cl)c1 [Compound 352, 4-cyano-3-(3,4-dichlorobenzyl)-N-(methylsulfonyl)-5-morpholinothiophene-2-carboxamide]",84%,14%,18%,85%,–,–
CC(=O)NC(c1ccc(Cl)cc1)c1c(C(=O)O)sc(N2CCOCC2)c1C#N (stereo not drawn) [Compound 353],80%,15%,19%,87%,–,–
COC(=O)NC(c1ccc2ccccc2c1)c1c(C(=O)O)sc(N2CCOCC2)c1C#N (stereo not drawn) [Compound 354],99%,40%,89%,111%,–,–
"C=CCC(c1ccc(Cl)c(Cl)c1)c1c(C(=O)O)sc(N2CCOCC2)c1C#N (stereo not drawn) [Compound 355, 4-cyano-3-[1-(3,4-dichlorophenyl)but-3-en-1-yl]-5-(morpholin-4-yl)thiophene-2-carboxylic acid]",105%,53%,44%,100%,–,–
c1ccc2cc(Cc3cc(N4CCOCC4)sc3-c3nnn[nH]3)ccc2c1 [Compound 356],72%,23%,11%,95%,–,–
N#Cc1c(N2CCOCC2)sc(C(=O)O)c1C(N)c1ccc2ccccc2c1 (stereo not drawn) [Compound 357],110%,79%,89%,110%,–,–
N#Cc1c(N2CCOCC2)sc(C(=O)O)c1C(F)(F)c1ccc(Cl)cc1 [Compound 358],51%,32%,13%,43%,–,–
N#Cc1c(N2CCOCC2)sc(C(=O)O)c1Cc1cc2ccc(Cl)cc2[nH]1 [Compound 359],102%,64%,90%,109%,–,–
"c1ccc2cc(Cc3nc(N4CCOCC4)sc3-c3nnn[nH]3)ccc2c1 [Compound 360, 4-[4-(2-naphthylmethyl)-5-(1H-tetrazol-5-yl)-1,3-thiazol-2-yl]morpholine]",–,–,–,–,110%,p110 gamma Percent Inhibition (Human PI3K gamma; [9]): 49%; p110 alpha Percent Inhibition (Human PI3K alpha; [10]): 30%; p110 beta Percent Inhibition (Human PI3K beta; [10]): 106%
COc1ccc2ccc(Cc3c(C(=O)O)sc(N4CCOCC4)c3C#N)cc2c1 [Compound 361],111%,60%,104%,115%,–,–
"CN(C)C(c1ccc(Cl)c(Cl)c1)c1c(C(=O)O)sc(N2CCOCC2)c1C#N (stereo not drawn) [Compound 362, 4-cyano-3-[(3,4-dichlorophenyl)(dimethylamino)methyl]-5-(morpholin-4-yl)thiophene-2-carboxylic acid]",–,–,–,–,104%,p110 gamma Percent Inhibition (Human PI3K gamma; [9]): 44%; p110 alpha Percent Inhibition (Human PI3K alpha; [10]): 80%; p110 beta Percent Inhibition (Human PI3K beta; [10]): 116%
N#Cc1c(N2CCOCC2)sc(C(=O)O)c1C(CCO)c1ccc2ccccc2c1 (stereo not drawn) [Compound 363],–,–,–,–,106%,p110 gamma Percent Inhibition (Human PI3K gamma; [9]): 65%; p110 alpha Percent Inhibition (Human PI3K alpha; [10]): 99%; p110 beta Percent Inhibition (Human PI3K beta; [10]): 113%
N#Cc1c(N2CCOCC2)sc(C(=O)O)c1C(F)c1ccc2ccccc2c1 (stereo not drawn) [Compound 364],–,–,–,–,101%,p110 gamma Percent Inhibition (Human PI3K gamma; [9]): 56%; p110 alpha Percent Inhibition (Human PI3K alpha; [10]): 88%; p110 beta Percent Inhibition (Human PI3K beta; [10]): 109%
N#Cc1c(N2CCOCC2)sc(C(=O)O)c1C(CCF)c1ccc2ccccc2c1 (stereo not drawn) [Compound 365],–,–,–,–,112%,p110 gamma Percent Inhibition (Human PI3K gamma; [9]): 63%; p110 alpha Percent Inhibition (Human PI3K alpha; [10]): 105%; p110 beta Percent Inhibition (Human PI3K beta; [10]): 117%
CC(c1ccc(Cl)c(Cl)c1)c1c(C(=O)O)sc(N2CCOCC2)c1C#N (stereo not drawn) [Compound 366],–,–,–,–,113%,p110 gamma Percent Inhibition (Human PI3K gamma; [9]): 77%; p110 alpha Percent Inhibition (Human PI3K alpha; [10]): 66%; p110 beta Percent Inhibition (Human PI3K beta; [10]): 113%
"CC(c1ccc2ccccc2c1)c1c(C(=O)O)sc(N2CCOCC2)c1C#N (stereo not drawn) [Compound 367, 4-cyano-5-(morpholin-4-yl)-3-[1-(2-naphthyl)ethyl]thiophene-2-carboxylic acid]",–,–,–,–,–,inhibition at 1 µM (Human PI3K delta; [11]): 116%; inhibition at 1 µM (Human PI3K gamma; [12]): 72%; inhibition at 1.1 µM (Human PI3K alpha; [13]): 99%; inhibition at 1.1 µM (Human PI3K beta; [14]): 110%
"COC(c1ccc2ccccc2c1)c1c(C(=O)O)sc(N2CCOCC2)c1C#N (stereo not drawn) [Compound 368, 4-cyano-3-[methoxy(2-naphthyl)methyl]-5-(morpholin-4-yl)thiophene-2-carboxylic acid]",–,87%,89%,112%,113%,–
CC(c1ccc2cc(F)ccc2c1)c1c(C(=O)O)sc(N2CCOCC2)c1C#N (stereo not drawn) [Compound 369],–,–,–,–,109%,p110 gamma Percent Inhibition (Human PI3K gamma; [9]): 65%; p110 alpha Percent Inhibition (Human PI3K alpha; [10]): 109%; p110 beta Percent Inhibition (Human PI3K beta; [10]): 115%
"O=C(O)c1[se]c(N2CCOCC2)nc1Cc1ccc(Cl)cc1 [Compound 370, 4-(4-chlorobenzyl)-2-morpholino-1,3-selenazole-5-carboxylic acid]",–,–,–,–,–,inhibition at 1 µM (Human PI3K delta; [11]): 62%; inhibition at 1 µM (Human PI3K gamma; [12]): 12%; inhibition at 1.1 µM (Human PI3K alpha; [13]): 22%; inhibition at 1.1 µM (Human PI3K beta; [14]): 98%
